Measured values published in publication PMC3445653 (Neuropharmacology, 2012).
Entries after “also recorded” stand apart in the source; their conditions may differ. Like-named read-outs stand apart in the source and are kept apart here.

Experiments:
[1] = target: T1, PKMζ (Homo sapiens, UniProt Q05513); experiment: PKMζ phosphorylation assay, PKCε substrate; type: biochemical
T1 sequence (Q05513 1-409 isoform Q05513-2): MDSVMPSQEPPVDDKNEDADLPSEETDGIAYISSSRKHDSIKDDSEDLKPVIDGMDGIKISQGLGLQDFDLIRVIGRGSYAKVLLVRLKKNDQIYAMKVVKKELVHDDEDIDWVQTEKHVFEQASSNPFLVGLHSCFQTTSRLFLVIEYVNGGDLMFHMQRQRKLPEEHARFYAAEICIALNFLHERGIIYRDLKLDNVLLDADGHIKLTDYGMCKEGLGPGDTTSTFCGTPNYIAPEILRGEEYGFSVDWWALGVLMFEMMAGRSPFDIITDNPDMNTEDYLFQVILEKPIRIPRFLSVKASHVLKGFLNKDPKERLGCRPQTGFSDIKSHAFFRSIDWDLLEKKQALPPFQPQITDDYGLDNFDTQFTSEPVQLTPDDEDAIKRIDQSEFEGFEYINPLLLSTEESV

[2] = tested on: PKMζ-RFP fusion protein; conditions: ref Wu-Zhang et al., 2012, cited from earlier work
[3] = target: T1, PKMζ; conditions: ref Ling et al., 2002; cited from earlier work
[4] = tested on: catalytic domain of PKC; conditions: ref Herbert et al., 1990, cited from earlier work
[5] = tested on: PDK1 phosphorylation of PKMζ (T410); experiment: Activation loop; type: cell-based, Sprague Dawley rats; conditions: 100 nM for 4 hr, control vs staurosporine p = 0.9, n = 5
[6] = tested on: baseline fEPSPs in hippocampal slices; experiment: Baseline fEPSP in hippocampal slices; type: cell-based, Sprague Dawley rats; conditions: 100 nM; p = 0.8 between 10 and 60 min; n = 4
[7] = tested on: PDK1 phosphorylation of N-terminally tagged, eGFP-PKMζ overexpressed in 293T cells; experiment: Activation loop phosphorylation of eGFP-PKMζ overexpressed in 293T cells; type: cell-based; conditions: 100 nM for 4 hr; A. Tcherepanov and T. C. Sacktor, unpublished data
[8] = tested on: LTP maintenance; conditions: cited from earlier work
[9] = tested on: LTP induction; conditions: 100 nM; hippocampal slices; ref Ling et al., 2002; cited from earlier work
[10] = tested on: baseline postsynaptic AMPAR responses in CA1 pyramidal cells of hippocampal slices; experiment: Baseline postsynaptic AMPAR-mediated EPSCs; type: cell-based, Sprague Dawley rats; conditions: 5 μM scrambled ZIP; p = 0.6, 1 min before application vs 15 min after; n = 4

COc1ccc2c(c[n+](C)c3c4cc5c(cc4ccc23)OCO5)c1OC [chelerythrine]
inhibition of PKMζ, 10 μM DTT ([1]; DTT 10 μM, PKMζ 5 nM, 25 μM PKCε substrate, n = 4): effective | inhibition of PKMζ, 1 mM DTT ([1]; DTT 1 mM, PKMζ 5 nM, 25 μM PKCε substrate, n = 4): much less effective | sensitivity to redox state ([1]; high levels of dithiothreitol (DTT), PKMζ 5 nM): redox-sensitive inhibitor of PKMζ; also recorded: sensitive to redox state | inhibition of PKMζ fusion protein in transfected cultured cells [2]: did not inhibit | inhibition of PKM forms [3]: highly effective on PKM forms; also recorded: particularly effective on PKM forms | mode of inhibition ([4]; inhibition of substrate binding): competitive inhibitors of substrate binding | inhibition of catalytic domain of PKC ([4]; Thompson and Fields, 1996): inhibitor of the catalytic domain of PKC

CN[C@@H]1C[C@H]2O[C@@](C)([C@@H]1OC)n1c3ccccc3c3c4c(c5c6ccccc6n2c5c31)C(=O)NC4 [staurosporine]
phosphorylation state of the activation loop of PKMζ (T410P) [5]: no effect | phosphorylation state of the activation loop of PKMζ (T410P) ([5]; listed as Staurosporine): does not alter the phosphorylation state | effect on baseline fEPSP [6]: no effect on baseline | PDK1 phosphorylation of eGFP-PKMζ [7]: no effect | activation loop phosphorylation of overexpressed PKMζ-RFP ([2]; cultured cells): reduce activation loop phosphorylation | effect on LTP maintenance ([8]; 100 nM, 4 hours, hippocampal slices, ref Ling et al., 2002): does not reverse LTP maintenance; also recorded: but not LTP maintenance | effect on LTP induction [9]: prevented LTP induction; also recorded: block LTP induction

myr-RLYRKRIWRSAGR-OH [scrambled ZIP]
efficacy on inhibiting PKMζ biochemically in vitro relative to ZIP ([1]; Fig. 4A, right, compared with ZIP): less effective | inhibition of PKMζ at higher doses ([1]; higher doses, Fig. 4A, right): will also inhibit PKMζ at higher doses | effect on baseline postsynaptic AMPAR responses [10]: no effect | effect on LTP maintenance ([8]; dose equivalent to ZIP (5 μM), ref Serrano et al., 2005): ineffective
